Values of other authors in publication PMC4920590, “GPR142 Controls Tryptophan-Induced Insulin and Incretin Hormone Secretion to Improve Glucose Metabolism” (PLoS ONE, 2016).

System: Calcium-sensing receptor (CaSR)
Set-up: method as in PMID 24812056
Conditions: rats; cited from earlier work

In the case of `C[C@@H](NCCCc1cccc(C(F)(F)F)c1)c1cccc2ccccc12` [Cinacalcet], the glucose is given as “lower glucose”.
